Each structure is given as a SMILES string.

The test system of series [1] is normal human dermal fibroblasts (NHDF). The series is described as follows: UV-induced mtDNA common deletion (Cdel) in fibroblasts, PCR. To be noted: for reduction in Cdel incidence compared to the irradiated control group: UV-irradiated NHDF; for Nest PCR - deleted mtDNA, % Irradiated control / Nest PCR - deleted mtDNA, Relative Intensity / PCR on mtDNA (262 bp) long fragment, % Irradiated control / PCR on mtDNA (262 bp) long fragment, Relative Intensity: irradiated conditions UVA 4 J/cm^2. In kind it is cell-based. How it is done:
(§1) The normal human dermal fibroblasts (NHDF) were incubated for 16 days, with ultraviolet light exposure three times a day. For the experimental group the cells were treated using medium containing 0.5, 3, 30 μM of ergothioneine.
(§2) Deletions in mtDNA were quantified using qPCR. The 522 bp fragment represents the amount of mtDNA with deletions, whereas the 262 bp fragment reflects the quantity of intact mtDNA, Relative intensity (AU) is typically used to describe the intensity of the fluorescent signal, and its magnitude is proportional to the number of fragments measured. And cell activity was analyzed using WST-8.
FIG. 2 depicts the effect of compound ergothioneine on the UV-induced mtDNA common deletion (Cdel) in fibroblasts—migration of PCR products (262 bp fragment=total mtDNA without Cdel; 522 bp fragment=mtDNA with Cdel) on 1.5% agarose gel.

Series [2] has the same test system. As to the kind of experiment: Cell viability (WST-8) of UVA-irradiated fibroblasts. In kind it is cell-based. The conditions noted are these: light or radiation study, irradiated conditions UVA 4 J/cm^2, read-out: Viability (WST-8), % Irradiated control. How it is done: as §1, §2
Background: Tetrazolium assays rely on reduction of a dye to a coloured formazan, in cell work by metabolically active cells.

The conditions of series [3]: animals and humans, even at high doses; cited from earlier work.

Consider `C[N+](C)(C)[C@@H](Cc1c[nH]c(=S)[nH]1)C(=O)[O-]` [Ergothioneine, ergothioneine], for which, in series [1] (0.5 μM), the “reduction in Cdel incidence compared to the irradiated control group” value (“reduction in Cdel incidence” for short) was 56%; the “Nest PCR - deleted mtDNA, % Irradiated control” value (from here on “Nest PCR … % Irradiated control”) is reported as 56%; the “Nest PCR - deleted mtDNA, Relative Intensity” value (from here on “Nest PCR … Relative Intensity”) is given as 45153 AU; the “PCR on mtDNA (262 bp) long fragment, % Irradiated control” value (“PCR on mtDNA … % Irradiated control” below) turned out to be 120%. Moreover, in series [1] (0.5 μM), the “PCR on mtDNA (262 bp) long fragment, Relative Intensity” value (shortened to “PCR on mtDNA … Relative Intensity”) is 663197 AU. Also, in series [1] (3 μM), the “reduction in Cdel incidence” value came to 67%; the “Nest PCR … % Irradiated control” value was 33%; the “Nest PCR … Relative Intensity” value was determined as 26636 AU; the “PCR on mtDNA … % Irradiated control” value worked out at 110%. Further, in series [1] (3 μM), the “PCR on mtDNA … Relative Intensity” value was found to be 606349 AU. Also, in series [1] (30 μM), the “reduction in Cdel incidence” value was 75%; the “Nest PCR … % Irradiated control” value stood at 25%; the “Nest PCR … Relative Intensity” value is 20645 AU; the “PCR on mtDNA … % Irradiated control” value is listed as 118%. Further, the “PCR on mtDNA … Relative Intensity” value in series [1] (30 μM) was found to be 652512 AU. For the same compound, in series [2] (0.5 μM), the viability (commonly the share of living cells, or the viability signal relative to a control) at 0.5 µM came out at 100%. For the same compound, in series [2] (3 μM), the viability at 3 µM came out at 96%. Moreover, the viability at 30 µM in series [2] (30 μM) stood at 96%. The “toxicity or adverse effects associated with administration” value in series [3] was “no toxicity or adverse effects”.
